Assay results reported in patent US20250270213A1, “PI3Ka INHIBITORS” (Synnovation Therapeutics, Inc., priority 2022, published 2025).

Test system: T47D (PIK3CA H1047R) cells
Assay: pS473 AKT assay with 2.5% FBS, T47D cells
Type: cell-based
Details: Homo sapiens, pSer473 AKT, DMEM with 2.5% FBS, 2 h treatment, read-out: T47D_IC50
Protocol: Example B. pS473 AKT Assay Protocol with 2.5% FBS
T47D (PIK3CA H1047R) cells were cultured using 10-cm petri dishes with recommended medium plus 10% fetal bovine serum. One day before the assay, cells were seeded in 96-well plates. After overnight incubation, the medium was changed to DMEM with 2.5% fetal bovine serum (FBS) and the cells were treated with different concentrations of the compounds for 2 h. Cells were then fixed using 4% paraformaldehyde at room temperature for 20 min. Aspirate 4% paraformaldehyde, and wash cells using 1× regular phosphate buffered saline 3 times, 5 min each. Aspirate any residual phosphate buffered saline and block cells using 10% goat serum containing 1% bovine serum albumin and 0.3% Triton X-100 at room temperature for 1 h. Without any additional washing, primary antibodies (rabbit anti-pSer473 AKT) were diluted using blocking buffer and added at a final volume of 50 microliter per well. Keep assay plates with primary antibodies overnight at 4° C. Wash cells using 1× regular phosphate buffered saline 3 times, 5 min each. After the final wash, incubate cells with horseradish peroxidase-conjugated secondary antibodies (goat Anti-rabbit IgG) diluted using the same blocking buffer at room temperature for 1 h. Wash cells thoroughly using 1× regular phosphate buffered saline 3 times, 5 min each. Aspirate any residual phosphate buffered saline. Add Super-Signal ELISA Pico Chemiluminescent Substrate at a final volume of 100 microliter per well. Read plates on i3x Multi-Mode Microplate Reader and calculate IC50 values using GraphPad Prism software.

Row | Compound | IC50 [µM]
1 | CCc1nn2c3c4c(cc(C)cc4c(=O)n(C)c13)C(Nc1ccc(C)nc1-c1ccncc1)C2 (stereo not drawn) [Compound 40, 2-Ethyl-3,6-dimethyl-8-((6-methyl-[2,4′-bipyridin]-3-yl)amino)-8,9-dihydrobenzo[de]pyrazolo[4,5,1-ij][1,7]naphthyridin-4(3H)-one] | < 1
2 | CCn1ncc2c3c(C(C)Nc4ccc(Cl)nc4-c4ccc(=O)n(C)c4)cc(C)cc3c(=O)n(C)c21 (stereo not drawn) [Compound 41, 9-(1-((6-chloro-1′-methyl-6′-oxo-1′,6′-dihydro-[2,3′-bipyridin]-3-yl)amino)ethyl)-3-ethyl-4,7-dimethyl-3,4-dihydro-5H-pyrazolo[3,4-c]isoquinolin-5-one] | < 1
3 | CCn1ncc2c3c(C(C)Nc4ccc(Cl)nc4-c4ccc(C(=O)NC)c(F)c4)cc(C)cc3c(=O)n(C)c21 (stereo not drawn) [Compound 42, 4-(6-chloro-3-((1-(3-ethyl-4,7-dimethyl-5-oxo-4,5-dihydro-3H-pyrazolo[3,4-c]isoquinolin-9-yl)ethyl)amino)pyridin-2-yl)-2-fluoro-N-methylbenzamide] | < 1
4 | CCn1ncc2c3c(C(C)Nc4ccc(Cl)nc4-c4ccncn4)cc(C)cc3c(=O)n(C)c21 (stereo not drawn) [Compound 43, 9-(1-((6-chloro-2-(pyrimidin-4-yl)pyridin-3-yl)amino)ethyl)-3-ethyl-4,7-dimethyl-3,4-dihydro-5H-pyrazolo[3,4-c]isoquinolin-5-one] | < 1
5 | CCn1ncc2c3c(C(C)Nc4ccc(Cl)nc4-c4cncnc4)cc(C)cc3c(=O)n(C)c21 (stereo not drawn) [Compound 44, 9-(1-((6-chloro-2-(pyrimidin-5-yl)pyridin-3-yl)amino)ethyl)-3-ethyl-4,7-dimethyl-3,4-dihydro-5H-pyrazolo[3,4-c]isoquinolin-5-one] | < 1
6 | CCn1ncc2c3c(C(C)Nc4ccc(Cl)nc4-c4ccncc4F)cc(C)cc3c(=O)n(C)c21 (stereo not drawn) [Compound 45, 9-(1-((6-chloro-3′-fluoro-[2,4′-bipyridin]-3-yl)amino)ethyl)-3-ethyl-4,7-dimethyl-3,4-dihydro-5H-pyrazolo[3,4-c]isoquinolin-5-one] | < 1
7 | CCn1ncc2c3c(C(C)Nc4ccc(Cl)nc4-c4ccc(C(=O)N(C)C)cc4)cc(C)cc3c(=O)n(C)c21 (stereo not drawn) [Compound 46, 4-(6-chloro-3-((1-(3-ethyl-4,7-dimethyl-5-oxo-4,5-dihydro-3H-pyrazolo[3,4-c]isoquinolin-9-yl)ethyl)amino)pyridin-2-yl)-N,N-dimethylbenzamide] | < 1
8 | CCn1ncc2c3c(C(C)Nc4ccc(Cl)nc4-c4ccc(C(=O)O)cc4)cc(C)cc3c(=O)n(C)c21 (stereo not drawn) [Compound 47, 4-(6-chloro-3-((1-(3-ethyl-4,7-dimethyl-5-oxo-4,5-dihydro-3H-pyrazolo[3,4-c]isoquinolin-9-yl)ethyl)amino)pyridin-2-yl) benzoic acid] | < 1
9 | CCn1ncc2c3c(C(C)Nc4ccc(Cl)nc4-c4ccnn4C)cc(C)cc3c(=O)n(C)c21 (stereo not drawn) [Compound 48, 9-(1-((6-chloro-2-(1-methyl-1H-pyrazol-5-yl)pyridin-3-yl)amino)ethyl)-3-ethyl-4,7-dimethyl-3,4-dihydro-5H-pyrazolo[3,4-c]isoquinolin-5-one] | < 1
10 | CCn1ncc2c3c(C(C)Nc4ccc(Cl)nc4-c4cnn(C)c4C)cc(C)cc3c(=O)n(C)c21 (stereo not drawn) [Compound 49, 9-(1-((6-chloro-2-(1,5-dimethyl-1H-pyrazol-4-yl)pyridin-3-yl)amino)ethyl)-3-ethyl-4,7-dimethyl-3,4-dihydro-5H-pyrazolo[3,4-c]isoquinolin-5-one] | < 1
11 | CCn1ncc2c3c(C(C)Nc4ccc(Cl)nc4-c4cnn(C)c4)cc(C)cc3c(=O)n(C)c21 (stereo not drawn) [Compound 50, 9-(1-((6-chloro-2-(1-methyl-1H-pyrazol-4-yl)pyridin-3-yl)amino)ethyl)-3-ethyl-4,7-dimethyl-3,4-dihydro-5H-pyrazolo[3,4-c]isoquinolin-5-one] | < 1
12 | CCn1ncc2c3c(C(C)Nc4ccc(Cl)nc4-c4cn[nH]c4)cc(C)cc3c(=O)n(C)c21 (stereo not drawn) [Compound 51, 9-(1-((6-chloro-2-(1H-pyrazol-4-yl)pyridin-3-yl)amino)ethyl)-3-ethyl-4,7-dimethyl-3,4-dihydro-5H-pyrazolo[3,4-c]isoquinolin-5-one] | < 1
13 | CCn1ncc2c3c(C(C)Nc4ccc(C)nc4-c4cnn(C)c4)cc(C)cc3c(=O)n(C)c21 (stereo not drawn) [Compound 52, 3-Ethyl-4,7-dimethyl-9-(1-((6-methyl-2-(1-methyl-1H-pyrazol-4-yl)pyridin-3-yl)amino)ethyl)-3,4-dihydro-5H-pyrazolo[3,4-c]isoquinolin-5-one] | < 1
14 | CCn1ncc2c3c(C(C)Nc4ccc(C)nc4-c4cn[nH]c4)cc(C)cc3c(=O)n(C)c21 (stereo not drawn) [Compound 53, 3-ethyl-4,7-dimethyl-9-(1-((6-methyl-2-(1H-pyrazol-4-yl)pyridin-3-yl)amino)ethyl)-3,4-dihydro-5H-pyrazolo[3,4-c]isoquinolin-5-one] | < 1
15 | CCn1ncc2c3c(C(C)Nc4ccc(C)nc4-c4ccnn4C)cc(C)cc3c(=O)n(C)c21 (stereo not drawn) [Compound 54, 3-ethyl-4,7-dimethyl-9-(1-((6-methyl-2-(1-methyl-1H-pyrazol-5-yl)pyridin-3-yl)amino)ethyl)-3,4-dihydro-5H-pyrazolo[3,4-c]isoquinolin-5-one] | < 1
16 | CCn1ncc2c3c(C(C)Nc4ccc(C)nc4-c4ccc(C(=O)NC)c(F)c4)cc(C)cc3c(=O)n(C)c21 (stereo not drawn) [Compound 55, 4-(3-((1-(3-ethyl-4,7-dimethyl-5-oxo-4,5-dihydro-3H-pyrazolo[3,4-c]isoquinolin-9-yl)ethyl)amino)-6-methylpyridin-2-yl)-2-fluoro-N-methylbenzamide] | < 1
17 | CCn1ncc2c3c(C(C)Nc4ccccc4-c4cnn(CCO)c4)cc(C)cc3c(=O)n(C)c21 (stereo not drawn) [Compound 56, 3-ethyl-9-(1-((2-(1-(2-hydroxyethyl)-1H-pyrazol-4-yl)phenyl)amino)ethyl)-4,7-dimethyl-3,4-dihydro-5H-pyrazolo[3,4-c]isoquinolin-5-one] | < 1
18 | CCn1ncc2c3c(C(C)Nc4ccccc4N4CCN(C(C)=O)CC4)cc(C)cc3c(=O)n(C)c21 (stereo not drawn) [Compound 57, 9-(1-((2-(4-Acetylpiperazin-1-yl)phenyl)amino)ethyl)-3-ethyl-4,7-dimethyl-3,4-dihydro-5H-pyrazolo[3,4-c]isoquinolin-5-one] | < 1
19 | CCn1ncc2c3c(C(C)Nc4ccccc4N4CCn5cnnc5C4)cc(C)cc3c(=O)n(C)c21 (stereo not drawn) [Compound 58, 9-(1-((2-(5,6-Dihydro-[1,2,4]triazolo[4,3-a]pyrazin-7(8H)-yl)phenyl)amino)ethyl)-3-ethyl-4,7-dimethyl-3,4-dihydro-5H-pyrazolo[3,4-c]isoquinolin-5-one] | < 1
20 | CCn1ncc2c3c(C(C)Nc4ccc(Cl)nc4-c4noc(=O)[nH]4)cc(C)cc3c(=O)n(C)c21 (stereo not drawn) [Compound 59, 3-(6-Chloro-3-((1-(3-ethyl-4,7-dimethyl-5-oxo-4,5-dihydro-3H-pyrazolo[3,4-c]isoquinolin-9-yl)ethyl)amino)pyridin-2-yl)-1,2,4-oxadiazol-5(4H)-one] | < 1
21 | CCn1ncc2c3c(C(C)Nc4ccc(Cl)nc4-c4noc(=O)[nH]4)cc(C)cc3c(=O)n(CC(F)F)c21 (stereo not drawn) [Compound 60, 3-(6-Chloro-3-((1-(4-(2,2-difluoroethyl)-3-ethyl-7-methyl-5-oxo-4,5-dihydro-3H-pyrazolo[3,4-c]isoquinolin-9-yl)ethyl)amino)pyridin-2-yl)-1,2,4-oxadiazol-5(4H)-one] | < 1
